Test results as given in patent US20250018088A1, “COMPOSITIONS AND METHODS FOR REPAIRING DAMAGE TO SKELETAL MUSCLE” (MAYO FOUNDATION FOR MEDICAL EDUCATION AND RESEARCH, priority 2021, published 2025).

Key:
[1] = test system: Human Skeletal Muscle Myoblasts (HSMM); assay: Resveratrol inhibition of PEP-mediated HSMM proliferation; format: cell-based
Description: The mechanism of PEP-induced HSMM proliferation was interrogated using resveratrol (InvivoGen, San Diego, CA), an NF-κB inhibitor, in culture grown with 2.5×10^11 PEP exosomes/mL. The concentration of PEP exosomes was chosen both because of its optimal impact on the growth of cultured HSMMs and to match the empirically determined timed release PEP concentration from TISSEEL (Baxter International, Inc., Deerfield, IL) reconstituted with 1×10^12 PEP exosomes/mL. HSMM were plated on a 96-well plate at 10,000 cells/well overnight. Resveratrol was incubated at concentrations ranging from 50 μM to 500 μM for an hour before adding 2.5×10^11 PEP exosomes/mL to each well. Data is generated from live cell proliferation analysis (INCUCYTE, Essen BioScience, Inc., Ann Arbor, MI) by acquiring phase images (10× lens; five images/well in 96-well plate with three wells/condition). Western blotting for expression of NF-κB p65 at 72 hours post inhibition was quantified and normalized (IMAGE STUDIO software, LI-COR Biosciences, Inc., Lincoln, NE) using a total protein stain.

NF-κB p65 = assay: Western blot of NF-κB p65 expression in HSMM cells; format: cell-based, human; conditions: increasing resveratrol 50 μM to 500 μM with 2.5×10^11 exosomes/mL PEP, 72 hours
Description: Western blotting for expression of exosome markers was conducted in two different manners: traditional and Li-Cor. In the traditional method, equal amounts of protein were loaded into each lane and transferred to a PVDF membrane. The membranes were blocked in 5% nonfat dried milk diluted in TBST and incubated with primary antibodies against CD63, CD9, and Flotillin (Table 1). HIRP-conjugated secondary antibodies were used to incubate the membranes and were developed with enhanced chemiluminescence (AERSHAM, GE Healthcare, Chicago, TL). Loading was standardized to a GAPDH loading control. In the Li-Cor digital fluorescence method (Li-Cor Biosciences, Inc., Lincoln, NE), equal amounts of protein were loaded into each lane and transferred to a nitrocellulose membrane. The membranes were blocked in Li-Cor TBS Blocking Buffer and incubated with primary antibodies against NF-κB p65, and PD-L1. Secondary antibodies at 680 nm and 800 nm were used to fluorescently image the membranes using an imaging system (Odyssey CLx, Li-Cor Biosciences, Inc., Lincoln, NE). Digital fluorescent intensity was determined by IMAGE STUDIO software (Li-Cor Biosciences, Inc., Lincoln, NE) and loading was standardized by total protein stain (Li-Cor Biosciences, Inc., Lincoln, NE) for whole lane protein digital fluorescence and analyzed by EMPIRIA STUDIO software (Li-Cor Biosciences, Inc., Lincoln, NE). […]

Oc1ccc(C=Cc2cc(O)cc(O)c2)cc1 [resveratrol]
inhibition at 250 µM ([1]; Homo sapiens, Myoblast, 250 μM resveratrol, 2.5×10^11 exosomes/mL PEP, p<0.0001 vs PEP): ~50% | inhibition at 500 µM ([1]; Homo sapiens, Myoblast, 500 μM resveratrol, 2.5×10^11 exosomes/mL PEP, p<0.0001 vs PEP): ~100% | inhibition of myoblast growth ([1]; low doses of resveratrol (e.g., 50 μM), with PEP): not significantly inhibited | NF-κB expression in PEP-treated HSMM following resveratrol treatment (NF-κB p65): dose dependent decrease
